Here are results for seven compounds from patent publication US10294227B2, “Compounds” (UNIVERSITY COURT OF THE UNIVERSITY OF EDINBURGH, priority 2015, dated 2019).

Read-outs that look alike come from different tables or passages of the source.

Data set [1] in a line: Stability in human plasma. Type of data set: in vitro ADME. Particulars: % of unmodified drug after 120 min in plasma.
The nature of data set [2]: Stability in mouse plasma. Type of data set: in vitro ADME. Conditions: % of unmodified drug after 120 min in plasma.
A further data set addresses CYP2C9 (Homo sapiens (Human), UniProt P11712). The data set can be described thus: CYP P450 inhibition.
For data set [3] the following is noted: rat, serum.
In a further data set the target is HCK (Homo sapiens (Human), UniProt P08631). Nature of the data set: Kinase screening assay (IC50).
The conditions of data set [4]: human, serum.
The target of another data set is PDGFRa (Homo sapiens (Human), UniProt P16234). Nature of the data set: Kinase screening assay (IC50). The format is biochemical.
The target in the next data set is CYP2C19 (Homo sapiens (Human), UniProt P33261). The data set can be described thus: CYP P450 inhibition.
The next data set has as its target FGR (Homo sapiens (Human), UniProt P09769). The data set can be described thus: Kinase screening assay (IC50).
The target of a further data set is CYP1A2 (Homo sapiens (Human), UniProt P05177). Nature of the data set: in vitro.
The next data set concerns the target mTOR (Homo sapiens (Human), UniProt P42345). Nature of the data set: Kinase screening assay (IC50). Type of data set: biochemical.
The next data set deals with CYP3A4 (Homo sapiens (Human), UniProt P08684). Nature of the data set: CYP P450 inhibition.
Another data set has as its target BLK (Homo sapiens (Human), UniProt P51451). Nature of the data set: Kinase screening assay (IC50).
The target in the next data set is LCK (Homo sapiens (Human), UniProt P06239). The data set can be described thus: Kinase screening assay (IC50).
Another data set deals with FYN (Homo sapiens (Human), UniProt P06241). The data set can be described thus: Kinase screening assay (IC50).
The target of the next data set is RET (Homo sapiens (Human), UniProt P07949). The data set can be described thus: Kinase screening assay (IC50).
In a further data set the target is KIT (Homo sapiens (Human), UniProt P10721). Nature of the data set: Kinase screening assay (IC50).
For another data set, the target named is LYN (Homo sapiens (Human), UniProt P07948). Nature of the data set: Kinase screening assay (IC50).
Another data set concerns the target CYP2D6 (Homo sapiens (Human), UniProt P10635). The data set can be described thus: CYP P450 inhibition.
Data set [5] deals with T1, hERG channel (Homo sapiens (Human), UniProt Q12809). Nature of the data set: hERG Safety Assay, Ionworks high-throughput electrophysiology.
A short description of data set [6]: Liver microsome stability. Type of data set: in vitro ADME. Conditions: % of unmodified drug after 30 min incubation with liver microsomes.
In data set [7] the target is T1, hERG channel. The data set can be described thus: Predictor hERG Fluorescence Polarization Assay. The format is binding. Conditions: fluorescence polarization kit; read-out: hERG channel inhibition IC50. From the text:
These experiments corroborated the safety of the compounds.

The next data set can be described thus: Stability in rat plasma. Particulars: % of unmodified drug after 120 min in plasma.
For data set [8] the following is noted: PBS, aqueous buffer.
For the next data set, the target named is FRK/PTK5 (Homo sapiens (Human), UniProt P42685). The data set can be described thus: Kinase screening assay (IC50).
Another data set can be described thus: in vivo. Particulars: female, mouse.
For data set [9] the following is noted: mouse, in vivo.
The next data set has as its target YES (Homo sapiens (Human), UniProt P07947). The data set can be described thus: Kinase screening assay (IC50).
[10] abbreviates: read-out: Kinase Screening (IC50) HCK, Src Family.
The mark [11] stands for this setting: read-out: Target inhibition (IC50) HCK, 10 μM ATP.
Where [12] appears, read: 10 μM ATP, read-out: Target inhibition (IC50) PDGFRa.
Where [13] appears, read: read-out: Kinase Screening (IC50) PDGFRa.
The mark [14] stands for this setting: read-out: Kinase Screening (IC50) FGR, Src Family.
[15] abbreviates: read-out: Target inhibition (IC50) FGR, 10 μM ATP.
The mark [16] stands for this setting: 10 μM ATP, read-out: Target inhibition (IC50) mTOR.
Where [17] appears, read: read-out: Kinase Screening (IC50) mTOR.
The mark [18] stands for this setting: read-out: Kinase Screening (IC50) BLK, Src Family.
[19] abbreviates: read-out: Target inhibition (IC50) BLK, 10 μM ATP.
[20] abbreviates: read-out: Kinase Screening (IC50) LCK, Src Family.
The mark [21] stands for this setting: read-out: Target inhibition (IC50) LCK, 10 μM ATP.
Where [22] appears, read: read-out: Kinase Screening (IC50) FYN, Src Family.
Where [23] appears, read: read-out: Target inhibition (IC50) FYN, 10 μM ATP.
Where [24] appears, read: read-out: Kinase Screening (IC50) RET.
Where [25] appears, read: read-out: Target inhibition (IC50) RET, 10 μM ATP.
[26] abbreviates: read-out: Kinase Screening (IC50) c-KIT.
Setting [27] is: read-out: Kinase Screening (IC50) LYN, Src Family.
Setting [28] is: read-out: Target inhibition (IC50) LYN, 10 μM ATP.
[29] abbreviates: read-out: Target inhibition (IC50) KIT, 10 μM ATP.
[30] abbreviates: read-out: Kinase Screening (IC50) FRK, Src Family.
The mark [31] stands for this setting: read-out: Target inhibition (IC50) FRK/PTK5, 10 μM ATP.

Sequence of FYN (P06241 whole entry): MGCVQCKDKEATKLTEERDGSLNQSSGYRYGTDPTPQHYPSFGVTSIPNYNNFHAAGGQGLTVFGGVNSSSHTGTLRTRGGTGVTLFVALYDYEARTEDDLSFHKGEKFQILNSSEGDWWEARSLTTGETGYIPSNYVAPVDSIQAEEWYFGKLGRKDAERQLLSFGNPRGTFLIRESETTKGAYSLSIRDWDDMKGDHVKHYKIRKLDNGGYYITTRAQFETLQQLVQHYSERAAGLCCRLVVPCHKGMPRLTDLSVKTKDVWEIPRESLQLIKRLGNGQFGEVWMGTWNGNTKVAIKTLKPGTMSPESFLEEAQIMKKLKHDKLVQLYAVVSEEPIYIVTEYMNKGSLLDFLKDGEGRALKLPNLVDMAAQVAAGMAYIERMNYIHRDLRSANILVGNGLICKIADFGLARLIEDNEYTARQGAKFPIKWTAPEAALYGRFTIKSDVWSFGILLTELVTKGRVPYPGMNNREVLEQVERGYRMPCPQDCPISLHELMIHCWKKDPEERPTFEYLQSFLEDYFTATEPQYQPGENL
Sequence of CYP2C19 (P33261 whole entry): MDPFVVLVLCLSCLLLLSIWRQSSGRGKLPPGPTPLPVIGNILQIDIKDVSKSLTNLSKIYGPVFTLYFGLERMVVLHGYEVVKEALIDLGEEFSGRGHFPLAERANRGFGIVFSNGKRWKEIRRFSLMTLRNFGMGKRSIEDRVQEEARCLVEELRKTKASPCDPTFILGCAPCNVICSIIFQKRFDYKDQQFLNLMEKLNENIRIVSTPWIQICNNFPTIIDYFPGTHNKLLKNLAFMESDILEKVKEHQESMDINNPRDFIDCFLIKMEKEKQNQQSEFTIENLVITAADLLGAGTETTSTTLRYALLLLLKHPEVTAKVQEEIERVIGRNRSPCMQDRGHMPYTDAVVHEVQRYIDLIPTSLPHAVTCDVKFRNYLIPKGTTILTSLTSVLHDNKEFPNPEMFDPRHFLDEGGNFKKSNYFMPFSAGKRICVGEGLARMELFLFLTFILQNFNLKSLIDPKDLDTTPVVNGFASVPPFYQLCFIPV
Sequence of KIT (P10721 26-976): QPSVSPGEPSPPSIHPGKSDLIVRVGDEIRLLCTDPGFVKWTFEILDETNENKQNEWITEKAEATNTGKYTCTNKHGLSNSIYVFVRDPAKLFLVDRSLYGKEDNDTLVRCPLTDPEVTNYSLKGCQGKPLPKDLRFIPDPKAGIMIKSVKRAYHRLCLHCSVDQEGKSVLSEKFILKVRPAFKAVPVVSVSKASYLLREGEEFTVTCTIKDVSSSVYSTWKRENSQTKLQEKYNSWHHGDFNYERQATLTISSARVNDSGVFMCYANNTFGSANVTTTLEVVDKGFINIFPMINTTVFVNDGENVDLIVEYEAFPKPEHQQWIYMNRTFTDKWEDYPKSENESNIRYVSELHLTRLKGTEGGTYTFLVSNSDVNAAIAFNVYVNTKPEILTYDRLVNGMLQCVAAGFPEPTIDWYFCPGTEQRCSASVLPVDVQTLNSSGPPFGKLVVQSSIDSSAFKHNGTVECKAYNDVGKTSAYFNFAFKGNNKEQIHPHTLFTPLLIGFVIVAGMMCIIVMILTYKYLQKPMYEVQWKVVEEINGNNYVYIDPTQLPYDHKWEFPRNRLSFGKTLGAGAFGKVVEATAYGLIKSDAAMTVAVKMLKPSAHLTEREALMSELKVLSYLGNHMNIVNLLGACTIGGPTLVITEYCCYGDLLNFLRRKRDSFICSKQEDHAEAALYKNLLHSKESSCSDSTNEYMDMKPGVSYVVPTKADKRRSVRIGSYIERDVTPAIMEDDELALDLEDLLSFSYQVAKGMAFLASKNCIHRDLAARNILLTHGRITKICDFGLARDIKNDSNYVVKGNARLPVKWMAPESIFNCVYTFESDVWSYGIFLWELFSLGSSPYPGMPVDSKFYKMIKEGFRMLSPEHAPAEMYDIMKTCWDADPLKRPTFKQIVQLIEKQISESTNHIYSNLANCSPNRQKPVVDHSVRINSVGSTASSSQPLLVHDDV
Sequence of CYP1A2 (P05177 whole entry): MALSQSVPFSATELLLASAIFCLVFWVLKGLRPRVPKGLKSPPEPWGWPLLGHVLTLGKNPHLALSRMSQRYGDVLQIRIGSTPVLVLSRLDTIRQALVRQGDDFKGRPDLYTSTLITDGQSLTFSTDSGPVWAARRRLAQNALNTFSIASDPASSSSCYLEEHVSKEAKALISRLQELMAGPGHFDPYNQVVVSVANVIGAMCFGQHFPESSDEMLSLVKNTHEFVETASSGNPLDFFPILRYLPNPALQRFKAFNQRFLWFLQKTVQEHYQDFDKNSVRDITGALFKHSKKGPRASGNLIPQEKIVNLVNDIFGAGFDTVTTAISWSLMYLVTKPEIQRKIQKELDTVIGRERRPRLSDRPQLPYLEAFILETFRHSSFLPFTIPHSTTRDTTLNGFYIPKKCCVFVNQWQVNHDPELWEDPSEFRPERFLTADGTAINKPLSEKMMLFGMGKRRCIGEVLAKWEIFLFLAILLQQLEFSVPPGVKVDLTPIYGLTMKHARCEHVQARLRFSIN
Sequence of PDGFRa (P16234 24-1089): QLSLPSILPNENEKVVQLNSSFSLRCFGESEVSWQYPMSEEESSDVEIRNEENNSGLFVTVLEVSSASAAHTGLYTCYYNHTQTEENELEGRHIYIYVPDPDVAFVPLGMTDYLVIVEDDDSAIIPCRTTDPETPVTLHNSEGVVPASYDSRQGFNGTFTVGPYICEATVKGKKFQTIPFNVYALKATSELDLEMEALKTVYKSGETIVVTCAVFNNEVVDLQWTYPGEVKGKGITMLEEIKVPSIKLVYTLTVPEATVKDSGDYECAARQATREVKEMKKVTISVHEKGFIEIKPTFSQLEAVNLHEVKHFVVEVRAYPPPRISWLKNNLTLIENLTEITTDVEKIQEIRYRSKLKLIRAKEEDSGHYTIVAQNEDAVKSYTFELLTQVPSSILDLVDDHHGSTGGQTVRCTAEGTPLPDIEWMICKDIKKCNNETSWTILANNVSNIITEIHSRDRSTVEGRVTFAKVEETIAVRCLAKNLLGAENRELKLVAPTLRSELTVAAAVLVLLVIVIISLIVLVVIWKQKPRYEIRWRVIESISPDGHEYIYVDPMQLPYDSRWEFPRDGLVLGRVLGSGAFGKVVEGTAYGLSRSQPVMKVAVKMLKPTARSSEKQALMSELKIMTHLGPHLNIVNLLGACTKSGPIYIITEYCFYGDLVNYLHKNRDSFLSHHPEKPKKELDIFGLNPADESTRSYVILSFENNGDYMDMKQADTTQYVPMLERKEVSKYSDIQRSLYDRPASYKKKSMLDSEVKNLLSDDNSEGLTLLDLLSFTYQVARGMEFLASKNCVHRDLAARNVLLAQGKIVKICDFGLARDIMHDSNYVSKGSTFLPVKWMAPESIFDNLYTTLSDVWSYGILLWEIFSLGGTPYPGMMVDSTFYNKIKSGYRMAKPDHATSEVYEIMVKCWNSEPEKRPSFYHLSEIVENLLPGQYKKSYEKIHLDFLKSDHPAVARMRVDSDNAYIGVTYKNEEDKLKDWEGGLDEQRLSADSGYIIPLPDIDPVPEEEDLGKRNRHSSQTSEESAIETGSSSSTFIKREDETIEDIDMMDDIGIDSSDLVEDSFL
Sequence of HCK (P08631 whole entry): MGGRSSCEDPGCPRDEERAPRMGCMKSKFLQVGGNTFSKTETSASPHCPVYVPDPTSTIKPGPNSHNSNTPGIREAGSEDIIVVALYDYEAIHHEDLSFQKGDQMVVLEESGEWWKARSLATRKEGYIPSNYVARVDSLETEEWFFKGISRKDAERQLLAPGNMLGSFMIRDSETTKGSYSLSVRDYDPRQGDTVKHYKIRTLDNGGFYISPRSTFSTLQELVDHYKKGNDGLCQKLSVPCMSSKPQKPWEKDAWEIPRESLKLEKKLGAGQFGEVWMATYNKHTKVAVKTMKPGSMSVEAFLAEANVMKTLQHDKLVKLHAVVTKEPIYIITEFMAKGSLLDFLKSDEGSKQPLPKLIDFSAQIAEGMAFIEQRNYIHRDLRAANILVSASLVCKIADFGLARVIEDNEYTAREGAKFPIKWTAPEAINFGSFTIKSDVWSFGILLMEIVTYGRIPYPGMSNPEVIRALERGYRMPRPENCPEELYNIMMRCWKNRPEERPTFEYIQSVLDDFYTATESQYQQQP
Sequence of CYP2C9 (P11712 whole entry): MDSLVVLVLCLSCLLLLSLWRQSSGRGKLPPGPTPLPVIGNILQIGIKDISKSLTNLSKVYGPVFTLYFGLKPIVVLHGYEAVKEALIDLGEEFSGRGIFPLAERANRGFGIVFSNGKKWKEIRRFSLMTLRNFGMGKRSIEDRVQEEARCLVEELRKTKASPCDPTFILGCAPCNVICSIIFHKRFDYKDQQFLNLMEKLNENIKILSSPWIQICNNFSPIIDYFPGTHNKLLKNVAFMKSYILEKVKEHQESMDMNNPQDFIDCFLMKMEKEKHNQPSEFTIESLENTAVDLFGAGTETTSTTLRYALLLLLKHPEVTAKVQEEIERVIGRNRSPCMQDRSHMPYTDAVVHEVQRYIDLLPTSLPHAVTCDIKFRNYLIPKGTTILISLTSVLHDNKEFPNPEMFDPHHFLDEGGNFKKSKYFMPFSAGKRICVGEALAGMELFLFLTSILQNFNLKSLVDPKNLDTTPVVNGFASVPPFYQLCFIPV

In the case of `CC1CC(OC(=O)C(O)c2ccccc2)CC(C)(C)N1C` (centres unmarked) [Eucatropine, reference compound], the “Stability in human plasma” value in [1] came out at 10.5%. For the same compound, the “Stability in mouse plasma” value in [2] was 20.3%.

`COc1cc(-c2nn(CCN3CCC(N(C)C)CC3)c3ncnc(N)c23)ccc1NCc1ccccc1` [Compound 533, 3-[4-(benzylamino)-3-methoxy-phenyl]-1-[2-[4-(dimethylamino)-1-piperidyl]ethyl]pyrazolo[3,4-d]pyrimidin-4-amine]: the inhibition at 10 µM at CYP2C9 was -35.4%; at CYP2C19, 26.8%; on CYP1A2, 8.3%; on CYP3A4 it was 3.1%; on CYP2D6, 7.4%. In addition, the fraction unbound in data set [3] turned out to be 0.106; in data set [4], 0.118. Further, the IC50 on HCK (setting [10]) was under 10 nM; on HCK (setting [11]), under 10 nM; on PDGFRa (setting [12]) it was over 1000 nM; on PDGFRa (setting [13]), over 1000 nM; on FGR (setting [14]), under 10 nM; at FGR (setting [15]), under 10 nM. Moreover, the IC50 on mTOR (setting [16]) was over 1000 nM; on mTOR (setting [17]), over 1000 nM; on BLK (setting [18]), under 10 nM; at BLK (setting [19]), under 10 nM; on LCK (setting [20]) it was under 10 nM; on LCK (setting [21]), under 10 nM. Moreover, the IC50 is under 10 nM on FYN (setting [22]); under 10 nM at FYN (setting [23]); over 1000 nM on RET (setting [24]); over 1000 nM at RET (setting [25]); 100 to 1000 nM against KIT; 100 to 1000 nM at KIT (setting [26]). For the same compound, the IC50 is under 10 nM on LYN (setting [27]), under 10 nM on LYN (setting [28]), 2550 nM on hERG channel [5] and 10000 to 15000 nM on hERG channel [7]. Moreover, the “30 min Liver Microsome stability” value in data set [6] was found to be 98.8%.

In the case of `CN(C)C1CCN(CCn2nc(-c3ccc(CC(=O)OC(C)(C)C)cc3)c3c(N)ncnc32)CC1` [Compound 553, tert-butyl 2-[4-[4-amino-1-[2-[4-(dimethylamino)-1-piperidyl]ethyl]pyrazolo[3,4-d]pyrimidin-3-yl]phenyl]acetate], the IC50 at PDGFRa (setting [12]) was over 1000 nM; at PDGFRa (setting [13]) it was over 1000 nM; on FGR (setting [14]), under 10 nM; at FGR (setting [15]) it was under 10 nM; at mTOR (setting [16]), over 1000 nM; on mTOR (setting [17]), over 1000 nM. Further, the IC50 at LCK (setting [20]) was under 10 nM; on LCK (setting [21]) it was under 10 nM; on FYN (setting [22]), under 10 nM; on FYN (setting [23]), under 10 nM; on RET (setting [24]), over 1000 nM; at RET (setting [25]) it was over 1000 nM. Also, the IC50 at KIT (setting [26]) is over 1000 nM; on KIT (setting [29]), over 1000 nM; at LYN (setting [27]), under 10 nM; on LYN (setting [28]), under 10 nM; on hERG channel [5] it was 12600 nM. Further, the “Stability in rat plasma” value in “Stability in rat plasma” amounted to 68.2%. In addition, the “Stability in human plasma” value in data set [1] is reported as 98.3%. In addition, in data set [2], the “Stability in mouse plasma” value was determined as 70.4%.

Regarding `COc1cc(-c2nn(CCN3CCC(N(C)C)CC3)c3ncnc(N)c23)ccc1CC(=O)OC(C)(C)C` [Compound 565, tert-butyl 2-[4-[4-amino-1-[2-[4-(dimethylamino)-1-piperidyl]ethyl]pyrazolo[3,4-d]pyrimidin-3-yl]-2-methoxy-phenyl]acetate], the inhibition at 10 µM against CYP2C9 is -35.8%; on CYP2C19 it was -0.4%; at CYP1A2 it was 4.3%; at CYP3A4, 5.7%; against CYP2D6, 9.4%. The fraction unbound was 0.139 in [3] and 0.177 in [4]. The compound further displayed a solubility in [8] of over 100 mg/mL. Also, the IC50 is over 1000 nM at PDGFRa (setting [12]); over 1000 nM at PDGFRa (setting [13]); under 10 nM at FGR (setting [14]); under 10 nM on FGR (setting [15]); under 10 nM on FRK/PTK5 (setting [30]); under 10 nM on FRK/PTK5 (setting [31]). Further, the IC50 on mTOR (setting [16]) is over 1000 nM; on mTOR (setting [17]), over 1000 nM; at BLK (setting [18]), under 10 nM; at BLK (setting [19]), under 10 nM; at LCK (setting [20]), under 10 nM; on LCK (setting [21]), under 10 nM. For the same compound, the IC50 on FYN (setting [22]) was under 10 nM; on FYN (setting [23]), under 10 nM; at RET (setting [24]) it was over 1000 nM; at RET (setting [25]) it was over 1000 nM; on KIT (setting [26]), over 1000 nM; at KIT (setting [29]), over 1000 nM. For the same compound, the IC50 on LYN (setting [27]) is under 10 nM; at LYN (setting [28]) it was under 10 nM; on hERG channel [5], over 25000 nM. For the same compound, the “Stability in rat plasma” value in “Stability in rat plasma” is recorded as 93.3%^. Further, the bioavailability in “in vivo” and in the data set “in vivo” (po) was 52% throughout. The half-life in “in vivo” is 2 h. In addition, in data set [1], the “Stability in human plasma” value is 94%. In addition, the “30 min Liver Microsome stability” value in data set [6] is reported as 78.7%. In [9], the “toxic effects in PK study” value is recorded as “no toxic effects”. Moreover, in data set [2], the “Stability in mouse plasma” value amounted to 100%.

Compound `Cc1nc(Nc2ncc(C(=O)Nc3c(C)cccc3Cl)s2)cc(N2CCN(CCO)CC2)n1` [Dasatinib, reference compound] registered a solubility in data set [8] of under 0.1 mg/mL. In [4], this compound registered a fraction unbound of 0.06.

As for `COc1cc(-c2nn(CCN3CCC(N4CCCC4)CC3)c3ncnc(N)c23)ccc1NC(=O)OC(C)(C)C` [Compound 518, tert-butyl N-[4-[4-amino-1-[2-(4-pyrrolidin-1-yl-1-piperidyl)ethyl]pyrazolo[3,4-d]pyrimidin-3-yl]-2-methoxy-phenyl]carbamate], the inhibition at 10 µM is -92.3% on CYP2C9; -6.5% against CYP2C19; 6.9% on CYP1A2; -29.8% against CYP3A4; 6.7% on CYP2D6. Further, the values for the fraction unbound in data set [3] and in data set [4] were 0.134 and 0.172, respectively. The IC50 at HCK (setting [10]) is under 10 nM; on HCK (setting [11]), under 10 nM; on PDGFRa (setting [12]), over 1000 nM; at PDGFRa (setting [13]), over 1000 nM; at FGR (setting [14]) it was under 10 nM; at FGR (setting [15]) it was under 10 nM. The IC50 on FRK/PTK5 (setting [30]) was under 10 nM; on FRK/PTK5 (setting [31]) it was under 10 nM; on YES (read-out: Kinase Screening (IC50) YES, Src Family), under 10 nM; at YES (read-out: Target inhibition (IC50) YES, 10 μM ATP), under 10 nM; on mTOR (setting [16]), over 1000 nM; on mTOR (setting [17]) it was over 1000 nM. Also, the IC50 at BLK (setting [18]), at BLK (setting [19]), on LCK (setting [20]), on LCK (setting [21]), at FYN (setting [22]) and on FYN (setting [23]) was under 10 nM each time. The IC50 on RET (setting [24]) is over 1000 nM; at RET (setting [25]) it was over 1000 nM; on KIT (setting [26]), over 1000 nM; on KIT (setting [29]), over 1000 nM; on LYN (setting [27]) it was under 10 nM; at LYN (setting [28]), under 10 nM. The compound further came in with an IC50 against hERG channel [5] of 20100 nM. Also, the “30 min Liver Microsome stability” value in data set [6] is given as 87.0%.

As for `COc1ccc([C@@H]2Sc3ccccc3N(CCN(C)C)C(=O)[C@@H]2OC(C)=O)cc1` [Diltiazem, reference compound], in the data set “Stability in rat plasma”, the “Stability in rat plasma” value is reported as 21.5%.
